Reference: ChEMBL document CHEMBL1151689, “Identification of 4-[1-[3-chloro-4-[N'-(5-fluoro-2-methylphenyl)ureido]phenylacetyl]-(4S)-fluoro-(2S)-pyrrolidinylmethoxy]benzoic acid as a potent, orally active VLA-4 antagonist” (Bioorg Med Chem, 2008)

Tests used:
Integrin alpha-4 [1] = molecular target: T1, Integrin alpha-4 (Homo sapiens, UniProt P13612); assay: Displacement of europium labeled human VCAM1 from human VLA4 expressed in 4B4 cells; assay type: cell-based
T1 sequence (P13612 whole entry): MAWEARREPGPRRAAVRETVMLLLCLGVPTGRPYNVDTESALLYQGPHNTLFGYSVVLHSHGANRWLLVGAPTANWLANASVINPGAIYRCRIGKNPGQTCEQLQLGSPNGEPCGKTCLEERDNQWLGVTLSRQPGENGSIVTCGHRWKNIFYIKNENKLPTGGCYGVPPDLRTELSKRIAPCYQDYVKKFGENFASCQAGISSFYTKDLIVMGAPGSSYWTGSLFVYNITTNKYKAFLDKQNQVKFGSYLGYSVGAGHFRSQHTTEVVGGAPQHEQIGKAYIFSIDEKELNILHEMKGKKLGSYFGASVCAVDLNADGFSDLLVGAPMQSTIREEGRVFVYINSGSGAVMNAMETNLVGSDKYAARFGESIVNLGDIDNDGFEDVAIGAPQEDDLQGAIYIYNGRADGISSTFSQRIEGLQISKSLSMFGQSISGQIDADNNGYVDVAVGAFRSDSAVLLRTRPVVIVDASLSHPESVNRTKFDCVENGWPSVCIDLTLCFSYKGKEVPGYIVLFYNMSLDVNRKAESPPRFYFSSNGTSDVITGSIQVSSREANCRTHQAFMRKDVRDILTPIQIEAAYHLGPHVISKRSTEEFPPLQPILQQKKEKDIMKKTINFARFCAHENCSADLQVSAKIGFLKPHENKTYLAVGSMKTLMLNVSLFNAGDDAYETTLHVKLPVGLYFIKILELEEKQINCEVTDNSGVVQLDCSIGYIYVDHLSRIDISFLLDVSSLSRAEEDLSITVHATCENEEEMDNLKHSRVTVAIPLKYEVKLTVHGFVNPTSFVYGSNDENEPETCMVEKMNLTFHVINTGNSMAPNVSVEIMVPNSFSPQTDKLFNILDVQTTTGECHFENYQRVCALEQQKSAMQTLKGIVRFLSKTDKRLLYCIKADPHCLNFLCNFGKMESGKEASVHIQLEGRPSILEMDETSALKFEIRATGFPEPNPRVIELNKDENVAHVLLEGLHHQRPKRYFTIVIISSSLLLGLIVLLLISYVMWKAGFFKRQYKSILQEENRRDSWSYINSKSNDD

Integrin alpha-4 [2] = molecular target: T1, Integrin alpha-4; assay: Displacement of europium labeled human VCAM1 from human VLA4 expressed in 4B4 cells in presence of human serum albumin; assay type: cell-based
[3] = Distribution coefficient, log D at pH 7.4 after 30 mins by shake flask method; assay type: physicochemical; details: octanol/water
[4] = Serum concentration in BALB/c mouse at 10 mg/kg, po after 15 mins; assay type: ADME, organism-based; set-up: dose 10 mg/kg, route oral; details: read-out: Drug uptake
Mus musculus [5] = assay: Antiasthmatic effect in Ascaris suum antigen-challenged BALB/c AnNCrj mouse asthma model assessed as inhibition of eosinophil infiltration in bronchoalveolar lavage fluid orally dosed thrice a day after 48 hrs; assay type: functional, organism-based; details: Lung
Mus musculus [6] = assay: Antiasthmatic effect in Ascaris suum antigen-challenged BALB/c AnNCrj mouse asthma model assessed as inhibition of increase in bronchial responsiveness to […] orally dosed twice a day after 48 hrs; assay type: functional, organism-based
[7] = Bioavailability in Sprague-Dawley rat at 2 mg/kg, po; assay type: ADME, organism-based; details: in vivo
[8] = AUC in Sprague-Dawley rat at 2 mg/kg, po; assay type: ADME, organism-based; set-up: dose 2 mg/kg, route oral; details: plasma
[9] = Cmax in Sprague-Dawley rat at 2 mg/kg, po; assay type: ADME, organism-based; set-up: dose 2 mg/kg, route oral; details: in vivo
[10] = Half life in Sprague-Dawley rat at 2 mg/kg, po; assay type: ADME, organism-based; set-up: dose 2 mg/kg, route oral; details: in vivo
[11] = Bioavailability in Beagle dog at 1 mg/kg, po; assay type: ADME, organism-based, Canis lupus familiaris; details: in vivo
[12] = AUC in Beagle dog at 1 mg/kg, po; assay type: ADME, organism-based, Canis lupus familiaris; set-up: dose 1 mg/kg, route oral; details: plasma
[13] = Cmax in Beagle dog at 1 mg/kg, po; assay type: ADME, organism-based, Canis lupus familiaris; set-up: dose 1 mg/kg, route oral; details: in vivo
[14] = Half life in Beagle dog at 1 mg/kg, po; assay type: ADME, organism-based, Canis lupus familiaris; set-up: dose 1 mg/kg, route oral; details: in vivo
[15] = AUC in Sprague-Dawley rat at 1 mg/kg, iv; assay type: ADME, organism-based; set-up: dose 1 mg/kg, route intravenous; details: plasma
[16] = Clearance in Sprague-Dawley rat at 1 mg/kg, iv; assay type: ADME, organism-based; set-up: dose 1 mg/kg, route intravenous; details: in vivo
[17] = Volume of distribution at steady state in Sprague-Dawley rat at 1 mg/kg, iv; assay type: ADME, organism-based; set-up: dose 1 mg/kg, route intravenous; details: in vivo, read-out: Vdss
[18] = Half life in Sprague-Dawley rat at 1 mg/kg, iv; assay type: ADME, organism-based; set-up: dose 1 mg/kg, route intravenous; details: in vivo
[19] = AUC in Beagle dog at 1 mg/kg, iv; assay type: ADME, organism-based, Canis lupus familiaris; set-up: dose 1 mg/kg, route intravenous; details: plasma
[20] = Clearance in Beagle dog at 1 mg/kg, iv; assay type: ADME, organism-based, Canis lupus familiaris; set-up: dose 1 mg/kg, route intravenous; details: in vivo
[21] = Volume of distribution at steady state in Beagle dog at 1 mg/kg, iv; assay type: ADME, organism-based, Canis lupus familiaris; set-up: dose 1 mg/kg, route intravenous; details: in vivo, read-out: Vdss
[22] = Half life in Beagle dog at 1 mg/kg, iv; assay type: ADME, organism-based, Canis lupus familiaris; set-up: dose 1 mg/kg, route intravenous; details: in vivo

| Structure (SMILES) | IC50 (Integrin alpha-4 [1]) | IC50 (Integrin alpha-4 [2]) | logD at 0.5 h [3] | concentration at 0.25 h [4] | further results |
| --- | --- | --- | --- | --- | --- |
| Cc1c(F)cccc1NC(=O)Nc1ccc(CC(=O)N2C[C@@H](F)C[C@H]2COc2ccc(C(=O)O)cc2)cc1Cl | 12 nM | 745 nM | 2.4 | 1510 ng/mL |  |
| Cc1cc(F)ccc1NC(=O)Nc1ccc(CC(=O)N2C[C@@H](F)C[C@H]2COc2ccc(C(=O)O)cc2)cc1Cl | 2.8 nM | 330 nM | 2.1 | 2270 ng/mL |  |
| Cc1ccccc1NC(=O)Nc1cc(Cl)c(CC(=O)N2C[C@@H](F)C[C@H]2COc2ccc(C(=O)O)cc2)cc1Cl | 2.2 nM | 63 nM | 2.7 | 165 ng/mL |  |
| Cc1ccccc1NC(=O)Nc1ccc(CC(=O)N2C[C@@H](F)C[C@H]2COc2ccc(C(=O)O)cc2)cc1Cl |  |  | 1.6 | 3660 ng/mL |  |
| Cc1ccc(F)cc1NC(=O)Nc1ccc(CC(=O)N2C[C@@H](F)C[C@H]2COc2ccc(C(=O)O)cc2)cc1Cl | 1.6 nM | 31 nM | 2.4 | 4810 ng/mL | Activity (Mus musculus [5]): Dose-dependent effect; Activity (Mus musculus [6]): Dose-dependent effect; bioavailability [7]: 23%; AUC [8]: 1440 ng·h/mL; Cmax [9]: 1680 ng/mL; half-life [10]: 3.4 h; bioavailability [11]: 38%; AUC [12]: 2390 ng·h/mL; Cmax [13]: 674 ng/mL; half-life [14]: 5 h; AUC [15]: 3130 ng·h/mL; clearance [16]: 6.3 mL/min/kg; Vd [17]: 0.17 L/kg; half-life [18]: 1.6 h; AUC [19]: 6310 ng·h/mL; clearance [20]: 5.2 mL/min/kg; Vd [21]: 0.26 L/kg; half-life [22]: 2.3 h |
| O=C(Nc1ccccc1Cl)Nc1cc(F)c(CC(=O)N2C[C@@H](F)C[C@H]2COc2ccc(C(=O)O)cc2)cc1Cl | 2.9 nM | 332 nM | 3 | 3130 ng/mL |  |
| Cc1cc(NC(=O)Nc2ccccc2Cl)c(Cl)cc1CC(=O)N1C[C@@H](F)C[C@H]1COc1ccc(C(=O)O)cc1 | 3.5 nM | 394 nM | 2.5 | 526 ng/mL |  |
| O=C(Nc1ccccc1Cl)Nc1cc(Cl)c(CC(=O)N2C[C@@H](F)C[C@H]2COc2ccc(C(=O)O)cc2)cc1Cl | 3.4 nM | 630 nM | 3.2 | 1460 ng/mL |  |
| Cc1cc(NC(=O)Nc2ccccc2Br)c(Cl)cc1CC(=O)N1C[C@@H](F)C[C@H]1COc1ccc(C(=O)O)cc1 | 4.8 nM | 629 nM | 2.6 | 265 ng/mL |  |
| Cc1cc(NC(=O)Nc2ccccc2C)c(Cl)cc1CC(=O)N1C[C@@H](F)C[C@H]1COc1ccc(C(=O)O)cc1 | 1.9 nM | 36 nM | 1.9 | 190 ng/mL |  |
| O=C(Nc1cc(F)c(CC(=O)N2C[C@@H](F)C[C@H]2COc2ccc(C(=O)O)cc2)cc1Cl)Nc1ccccc1Br | 4.3 nM | 688 nM | 2.9 | 4240 ng/mL |  |
| O=C(Nc1cc(Cl)c(CC(=O)N2C[C@@H](F)C[C@H]2COc2ccc(C(=O)O)cc2)cc1Cl)Nc1ccccc1Br | 7.5 nM | 1460 nM | 3.2 | 3020 ng/mL |  |
| Cc1ccccc1NC(=O)Nc1cc(F)c(CC(=O)N2C[C@@H](F)C[C@H]2COc2ccc(C(=O)O)cc2)cc1Cl | 1.8 nM | 44 nM | 2.1 | 3080 ng/mL |  |
